In a melting point compilation (Tetko et al.; mined from patent text by program, amines drawn as free bases though some values may be those of a salt):

Row | Compound | melting point [°C]
1 | CCOC(=O)C1=C(N)NC2=C(C(=O)CCC2)C1c1cc(OC)c(OC)cc1[N+](=O)[O-] (stereo not drawn) | 261
2 | CCOC(=O)CN(C=C(C(=O)OCC)C(=O)OCC)N=Cc1ccccc1 | 105 to 106
3 | COc1ccc(C(=O)NCc2ccc(C)n2CCC#N)cc1OC | 175 to 176
4 | CC(=O)N1N=C(c2ccc([N+](=O)[O-])c(C)c2)c2cc3c(cc2CC1C)OCO3 (stereo not drawn) | 123 to 127
5 | CC1(C)CCn2c(nc(-c3ccccn3)cc2=O)N1 | 345 to 347
6 | O=C1CCCc2cc(OCc3cncnc3)ccc21 | 146 to 147
7 | CC1(C)CN(c2ncc(C(=O)N(CC3CC3)c3cc(C(F)(F)F)ccc3F)c(N)n2)C(=O)N1 | 188 to 189
8 | CCSCCn1c(=N)sc2cc(C(F)(F)C(F)(F)F)ccc21 | < 50
9 | CC(C)(O)/C=C\C(C)(C)O | 64
10 | CC(C)(C)OC(=O)CC(=O)c1cc2ccccc2cc1O | 80 to 84
11 | CC(C)(C)NNC(=O)OC(C)(C)C | 69 to 71
12 | CCOC(=O)c1ccccc1S(N)(=O)=O | 122 to 124
13 | CCOC(=O)CN(CP(=O)(ONN1CCOCC1)ONN1CCOCC1)C(=O)C(F)(F)F | 69 to 74
14 | COCC(=O)NCc1cccc2c1CN(C1CCC(=O)NC1=O)C2=O (stereo not drawn) | 232 to 234
15 | NC(=O)N1C(=O)C(=C(OCC(=O)C2COCOC2)c2cccs2)c2cc(F)c(Cl)cc21 | 199 to 200
16 | COc1ccc(CCC(=O)NNC(=O)c2ccc3ncsc3c2)cc1C(F)(F)F | 208 to 209
17 | CC(=O)N1CCc2sc(C)c(C(=O)CCCN3CCC(c4noc5cc(F)ccc45)CC3)c2C1 | 116 to 118
18 | N#CC1CN1C(=O)c1ccc(S(N)(=O)=O)cc1 (stereo not drawn) | 145 to 146
19 | Cn1c(=O)oc2cc(C(O)CBr)cnc21 (stereo not drawn) | 127 to 129
20 | COc1ccc(C(=O)O)cc1CCCN(C)C | 135 to 138

Row | Compound | melting point [°C]
21 | CCOP(=O)(Cc1ccc(NC(=O)[C@H]2Cc3cc4c(cc3C(=O)[C@H](C)S2)OCO4)cc1)OCC | 181 to 182
22 | CS(=O)(=O)NC1CCC(NC(=O)Nc2ccc(C(F)(F)F)cc2)CC1 (stereo not drawn) | 237 to 239
23 | COc1cccc(C=C2NC(=O)NC2=O)c1 | 229 to 231
24 | CC(C)(C)C(=O)NC#N | 112 to 118
25 | Cn1c(S(=O)(=O)CCO)nnc1S(=O)(=O)CCO | 176 to 177
26 | N#CC(NCCCO)c1ccc(F)cc1 (stereo not drawn) | 69 to 70
27 | COCC1(CCCCCCCCCCCCC2(C(=O)O)CC2)CC1 | 36.4 to 37.6
28 | CCCCCCCCCCOC(=O)C1CCC(=O)N1 (stereo not drawn) | 34 to 35
29 | CC(C)CNC(=O)CC1Sc2sc(S(N)(=O)=O)cc2NC1=O (stereo not drawn) | > 250
30 | CCOC(=O)c1c(N)oc(-c2ccc([N+](=O)[O-])cc2)c1C(=O)OCC | 174 to 177
31 | NCCNc1ccc2[nH]ncc2c1 | 150 to 165
32 | COC(=O)c1cc(-c2ccc3occc3c2)n[nH]c1=O | 222 to 225
33 | CCOC(=O)CCCOc1cccc(Oc2nc(OC)cc(OC)n2)c1C=O | 96
34 | CC(C)(C)c1noc(-c2cccc(S(C)(=O)=O)n2)n1 | 165 to 167
35 | COC1=C(C)C(=O)OC1O (stereo not drawn) | 79
36 | COC(=O)c1ccc(Cn2nnc3ccc(NC(=O)OC4CCCC4)cc32)c(OC)c1 | 142 to 143
37 | Cc1n[nH]c(=O)n1N=Cc1cccnc1 | 208 to 210
38 | CS(=O)(=O)c1cc(C(=O)N=C(N)N)ccc1C1C=CCC1 (stereo not drawn) | 188 to 190
39 | Cc1ccc2oc(-c3ccccc3-c3nnnn3C(c3ccccc3)(c3ccccc3)c3ccccc3)c(Br)c2c1 | 199 to 200

More lines, now with the values ahead:

Row | melting point [°C] | Compound
40 | 129 to 130 | CC(C)n1nc(-c2c(-c3ccccc3)nn3ccc(N4CCN(C(=O)CN(C)C)CC4)cc23)ccc1=O
41 | 122 to 123 | O=C(O)COCc1nn(-c2ccc(Cl)cc2)c2c1CCC2
42 | 212 to 214 | Cc1nc(N2C[C@@H](Cc3ccccc3)NC2=O)sc1C(=O)NCc1ccccc1
43 | 153 to 154 | CC(C)C[C@H](N)[C@@H](O)CCS(=O)(=O)CCc1ccccc1
44 | 68 to 70 | NCc1ccc(CN2CCN(c3ccccc3)CC2)cc1
45 | 114 to 116 | O=C1N(Cc2nsc(Cl)n2)c2ccccc2C12COc1cc3c(cc12)OCO3 (stereo not drawn)
46 | 160 to 161 | CCn1ncc2c(O)c(C(=O)O)c(CCc3ccccc3)nc21
47 | 229 to 234 | O=C(Nc1c(C(=O)c2ccccc2)[nH]c2cc(Cl)ccc12)c1ccccc1Cl
48 | 67 to 68 | CCOC(CI)=Nc1ccc(Cl)cc1C(=O)c1ccccc1
49 | 172 to 179 | CNc1ncc2c(n1)-c1ccc(Cl)cc1C(c1ccccc1F)=NC2
50 | 187 to 188 | Oc1ccc(F)cc1-c1cc(-c2ccc(-c3ccccc3)cc2)cc(-c2ccc3ccccc3c2)n1
51 | 82 | COC(=O)c1ccc(CCc2ccc(OC)cc2)nc1
52 | 204 to 206 | CN1C(=O)Cn2c(-c3ccccc3)nnc2-c2cc(Cl)ccc21
53 | 108 to 109 | COc1cc2ccccc2cc1O
54 | 92 | O=C1c2cc(Cl)ccc2-n2cccc21
55 | 73 to 75 | O=C(O)CCCCNc1ccccc1-c1ccccc1
56 | 68 to 71 | C[C@H]1[C@H](OS(C)(=O)=O)CN1C(c1ccccc1)c1ccccc1 (relative stereo)

Row | melting point [°C] | Compound
57 | 165 to 167 | CC(=O)NC[C@H]1CN(c2ccc(C3CCN(CC#N)CC3)c(F)c2)C(=O)O1
58 | 267 to 268 | Cc1nc(Nc2ccc(Cl)cc2)sc1-c1nc2ccccc2c(=O)n1-c1ccc(Cl)cc1
59 | 229 to 230 | CNc1nc(Cc2c(Cl)cccc2Cl)nc(Nc2ccc(C#N)cc2)n1
60 | 93 to 106 | O=C(NS(=O)(=O)NCCCN1CCC(Oc2ccc(Cl)c(Cl)c2)CC1)c1ccccc1
61 | 112 | O=C1c2ccccc2C(O)N1CCSc1ccncc1 (stereo not drawn)
62 | 114 to 116 | N#Cc1c(OCC(F)(F)F)nc(CCO)nc1N1CCc2ccccc2CC1
63 | 180 to 181 | CC(C(N)=O)c1ccc2c(c1Cl)C(=O)Cc1ccccc1S2 (stereo not drawn)
64 | 156 to 157 | O=C1c2ccccc2C(O)(c2ccc(Cl)cc2)N1Cc1ccc(Cl)cc1 (stereo not drawn)
65 | 131 | Cc1c(NC(=O)c2ccc(OCCC(C)C)cc2F)ccc2cc(CN3CCCC3)cnc12
66 | 91 to 93 | CNC(=O)c1cnc(Cl)cc1-c1ccccc1C
67 | 206 to 208 | Nc1c(F)c(N2CCC(c3ccccn3)C2)c(F)c2c1c(=O)c(C(=O)O)cn2C1CC1 (stereo not drawn)
68 | 144 to 147 | CCC1(CCCCN2CCN(c3ccccn3)CC2)C(=O)Nc2ccc(F)cc21 (stereo not drawn)
69 | 232 to 237 | Nc1cc(C(=O)O)cc(S(N)(=O)=O)c1-c1ccccc1
70 | 95 to 104 | CCc1nc2c(C)cc(C)nc2n1Cc1ccc(-c2ccccc2S(=O)(=O)Nc2onc(C)c2C)c(CN2CCC(C)(C)C2=O)c1
71 | 205 | COC(=O)c1ccc(Cl)c(C2(O)C(=O)N(Cc3ccc(Cl)cc3OC)c3ccc(Cl)cc32)c1 (stereo not drawn)
72 | 122 to 124 | Cc1nc(-c2ccccc2)nc(-c2cccc([N+](=O)[O-])c2)c1C(=O)NCCN(C)C
73 | 297 to 299 | CCCCc1ncc(/C=C2\C(=O)NC(=O)N2Cc2cccs2)n1Cc1ccc(C(=O)O)cc1
